Data from patent US6756390B2, “Organic acid salt of amlodipine” (CJ Corp., priority 2002, dated 2004).

Tests used:
Format in all cases: physicochemical
[1] = Light stability, 4 weeks at 25° C. with exposure to daylight, HPLC
Text: A measurement was made of the contents of the salts with resort to HPLC under the same conditions as in the chemical stability test.

[2] = Chemical stability in solid state, accelerated test at 60° C.
[3] = Solubility in various solvents at 37° C.; conditions: aqueous buffer, ionic strength 0.2, 37° C., based on the weight of amlodipine
[4] = Chemical stability in aqueous state, 25° C., 4 weeks in the dark, HPLC; conditions: distilled water
Method: The resulting aqueous solutions were stored at 25° C. for 4 weeks in the dark, after which a measurement was made of the contents of the salts with resort to HPLC under the same conditions as in the solid state.

Structure (SMILES) | Color change on light exposure ([1]; 4 weeks, 25° C., daylight) | Content (HPLC), Stored 4 weeks, 25° C. daylight ([1]; 4 weeks, 25° C., daylight) [%] | Content (HPLC), Initial [1] [%] | Content, storage period 1 week ([2]; 1 week) [%] | Content, storage period 2 weeks ([2]; 2 weeks) [%] | Content, storage period 4 weeks ([2]; 4 weeks) [%] | Content, storage period initial ([2]; initial) [%] | solubility ([3]; pH 3 buffer) [µg/mL] | solubility ([3]; pH 4 buffer) [µg/mL] | solubility ([3]; pH 6 buffer) [µg/mL] | solubility ([3]; pH 7 buffer) [µg/mL] | solubility ([3]; pH 8 buffer) [µg/mL] | Degraded impurity / content change in aqueous solution [4]
CCOC(=O)C1=C(COCCN)NC(C)=C(C(=O)OC)C1c1ccccc1Cl (stereo not drawn) [Besylate, Amlodipine Besylate] | turned yellow from white | 82.5 | 99.2 | 99.6 | 99.4 | 99.2 | 99.6 | 3250 | 3150 | 3190 | 1590 | 1390 | neither degraded impurity nor content change was found
CCOC(=O)C1=C(COCCN)NC(C)=C(C(=O)OC)C1c1ccccc1Cl.Cc1ccc(S(=O)(=O)O)cc1 (stereo not drawn) [Tosylate, Amlodipine Para-toluenesulfonate] |  | 72.0 | 99.2 |  |  |  |  |  |  |  |  |  | 
